Measured values from patent publication US20240287081A1, “PERFLUOROALKANE SUBSTITUTED PYRAZOLO[3,4-D]PYRIMIDIN AND PYRROLO[2,3-D]PYRIMIDIN COMPOUNDS AND USES THEREOF” (ICAHN SCHOOL OF MEDICINE AT MOUNT SINAI, priority 2021, published 2024).
“Also recorded” adds a separate entry of the source.

What was measured:
[1] = system: HCC tumor organoids, SR (sorafenib resistant); assay: 3D HCC tumor organoid viability, SR model; type: cell-based; conditions: 5.0 μM, viability three days post drug administration
Protocol: (§1) For assays in HCC tumor organoids, 96 well plates were first coated with a 50:50 solution of basal media:Matrigel ([…]), which polymerized for 15 minutes at 37° C. Tumor organoids were taken out of Matrigel, broken, and washed. Tumor organoids were seeded at 1,000 cells per well and were treated the following day with single doses of drugs in technical triplicate. Final DMSO concentrations were kept below 0.5%. Cell viability was measured three days post drug administration with either luminescence from CellTiter-Glo or absorbance at 560 and 590 nm from resazurin. Viability data was analyzed by normalizing individual drug-treated well values to DMSO-treated wells (BC=B-Catenin; SR=sorafenib resistant). Results of 3D HCC cell line data for pyrazolo- and pyrrolopyrimidine compounds at 0.5 μm (FIGS. 22A-F), 0.05 μm (FIGS. 23A-F), and 5.0 μm (FIGS. 24A-F) were obtained. […] In the BC model, at 5.0 μM, the top ten compounds were: APS-8-100-4, APS-8-52-3, APS-8-51-4, APS-7-25-2, APS-8-100-3, APS-8-51-3, APS-8-50-4, APS-8-52-4, and APS-7-38. In the SR model, at 5.0 μM, the top ten compounds were: APS-8-51-3, APS-8-50-4, APS-8-51-4, APS-8-52-3, APS-8-50-3, APS-7-52-2, APS-8-52-4, APS-7-52-1, and APS-8-100-4.

[2] = system: HCC tumor organoids, BC (B-Catenin); assay: 3D HCC tumor organoid viability, BC model; type: cell-based; conditions: 5.0 μM, viability three days post drug administration
Protocol: as §1

[3] = system: RET (WT and M918T); assay: NanoBRET cell based target engagement assay; conditions: RET-Nluc in HEK 293T cells; for cellular IC50 against RET, ranking in words: pyrazolo- and pyrrolopyrimidine series
[4] = system: ptc>dRet^M955T flies; assay: Fly rescue assay (Drosophila MTC model ptc>dRet^M955T); type: in vivo; conditions: compound in fly food; for rescue (percent viability of adult flies, adults/pupae×100): 13 d at 25° C.
Protocol: Kinase-mutated fly stocks were obtained from Bloomington Drosophila Stock Center (BDSC; Bloomington, IN). The active mutant form of Drosophila Ret (dRet^955T) carries an M955T mutation corresponding to the M918T mutation commonly reported for multiple endocrine neoplasia (MEN) type 2B patients12,14,16,34. The ptc-gal4, UAS-GFP;UAS-dRet^M955T/SM5tub-gal80-TM6B transgenic flies were prepared according to standard protocols and crossed with non-transgenic w-flies (BDSC) to generate ptc-gal4, UAS-GFP; UAS-dRet^M955T(ptc>dRet^M955T) flies for chemical screening.
All drugs were synthesized in-house. All compounds were dissolved in DMSO (Sigma-Aldrich; St. Louis, MO) and mixed with semi-defined fly medium (BDSC) to make drug food (0.1% final DMSO concentration). For drug screening, ptc>dRet^M955T embryos were raised until adulthood on drug food for 13 d at 25° C. The number of empty pupal cases (i.e., adults) ? that of total pupal cases (P) to determine % viability. Fly randomization was used throughout the assays.
In this model, compounds are assessed based on their ability to suppress oncogenic Ret^M955T-induced tumors, which can be quantified as ‘rescue’ from lethality. […] The baseline viability of ptc>Ret^1955T flies was calibrated to zero, which creates a high bar for rescue but also reduces false-positive hits. Hundreds of flies are tested per condition (typical n values are […] administered through fly food.

[5] = system: panel of 468 purified human kinases; assay: In vitro kinase percent inhibition, panel of 468 kinases (DiscoverX); type: binding; conditions: 1 μM; for binding to wild-type RET and RET^M918T, in words: kinase panel; for binding profile / selectivity across the kinome, in words: panel of 468 kinases
Protocol: Compounds were assayed against a panel of 468 purified human kinases (DiscoverX) to measure percentage inhibition values and derive kinome profiles (FIGS. 3B-3C). All compounds were screened at 1 μM, using two experimental replicates to determine percent inhibition values. Detailed procedures for kinase reactions and assay formats are described at http://www.discoverx.com. Raw data sets for individual compounds were filtered based on the variance of experimental replicates (cutoff=average variance+standard deviation).

For CC(C)n1nc(-c2ccc(NC(=O)Nc3ccc(C(F)(F)C(F)(F)C(F)(F)C(F)(F)F)cc3)cc2)c2c(N)ncnc21 [APS-8-52-3, 1-(4-(4-Amino-1-isopropyl-1H-pyrazolo[3,4-d]pyrimidin-3-yl)phenyl)-3-(4-(perfluorobutyl)phenyl)urea], the “ranking by inhibition of cell proliferation, SR model” value (“ranking by inhibition … SR model” below) [1] was “top ten” and the “ranking by inhibition of cell proliferation, BC model” value (“ranking by inhibition … BC model” below) [2] was “top ten”.

With CC(C)n1cc(-c2ccc(NC(=O)Nc3ccc(C(F)(C(F)(F)F)C(F)(F)F)cc3)cc2)c2c(N)ncnc21 [APS-8-50-4, 1-(4-(4-Amino-7-isopropyl-7H-pyrrolo[2,3-d]pyrimidin-5-yl)phenyl)-3-(4-(perfluoropropan-2-yl)phenyl)urea] the “ranking by inhibition … SR model” value [1] was “top ten” and the “ranking by inhibition … BC model” value [2] was “top ten”.

CC(C)n1cc(-c2ccc(NC(=O)Nc3cccc(C(F)(F)C(F)(F)C(F)(F)F)c3)cc2)c2c(N)ncnc21.O=C(O)C(F)(F)F [APS-7-52-2, 1-(4-(4-Amino-7-isopropyl-7H-pyrrolo[2,3-d]pyrimidin-5-yl)phenyl)-3-(3-(perfluoropropyl)phenyl)urea 2,2,2-trifluoroacetate] was tested, and the “ranking by inhibition … SR model” value [1] was “top ten”.

For CNC(=O)c1cc(Oc2ccc(NC(=O)Nc3ccc(Cl)c(C(F)(F)F)c3)c(F)c2)ccn1 [regorafenib, reference compound], the “cellular IC50 wild-type RET versus M918T mutant, in words” value [3] was “slightly lower IC50 values towards wild-type RET over the M918T mutant”.

With CNC(=O)c1cc(Oc2ccc(NC(=O)Nc3ccc(C(C)(F)C(C)(C)C)cc3)cc2)ccn1 (stereo not drawn) [compound 44] the “rescue (percent viability of adult flies, adults/pupae×100)” value ([4]; baseline viability 0%) was 55%.

For CC(C)n1nc(-c2ccc(NC(=O)Nc3ccc(C(F)(F)C(F)(F)F)cc3)cc2)c2c(N)ncnc21 [APS-8-100-3, 1-(4-(4-Amino-1-isopropyl-1H-pyrazolo[3,4-d]pyrimidin-3-yl)phenyl)-3-(4-(perfluoroethyl)phenyl)urea], the “cellular IC50 against RET, ranking in words” value (“cellular IC50 against RET” below) [3] was “lowest IC50 values among the para-substituted compounds tested”, the “rescue activity in the fly model, in words” value (from here on “rescue activity”) [4] was “exceptional in vivo activity” and the “rescue (percent viability of adult flies, adults/pupae×100)” value ([4]; baseline viability 0%) was 100%. The “ranking by inhibition … BC model” value [2] was “top ten”.

With CC(C)n1nc(-c2ccc(NC(=O)Nc3cc(C(F)(F)C(F)(F)F)ccc3F)cc2)c2c(N)ncnc21 [APS-5-86-2, 1-(4-(4-Amino-1-isopropyl-1H-pyrazolo[3,4-d]pyrimidin-3-yl)phenyl)-3-(2-fluoro-5-(perfluoroethyl)phenyl)urea] the “cellular IC50 wild-type RET versus M918T mutant, in words” value [3] was “not observed” and the “rescue (percent viability of adult flies, adults/pupae×100)” value ([4]; baseline viability 0%) was 92%.

With CC(C)n1cc(-c2ccc(NC(=O)Nc3ccc(C(F)(F)C(F)(F)C(F)(F)C(F)(F)F)cc3)cc2)c2c(N)ncnc21 [APS-8-52-4, 1-(4-(4-Amino-7-isopropyl-7H-pyrrolo[2,3-d]pyrimidin-5-yl)phenyl)-3-(4-(perfluorobutyl)phenyl)urea] the “ranking by inhibition … SR model” value [1] was “top ten” and the “ranking by inhibition … BC model” value [2] was “top ten”.

For CO[C@]1(C(=O)N[C@@H](C)c2ccc(-n3cc(F)cn3)nc2)CC[C@H](c2nc(C)cc(Nc3cc(C)[nH]n3)n2)CC1 [Blu667, reference compound], the “cellular IC50 wild-type RET versus M918T mutant, in words” value [3] was “slightly lower IC50 values towards wild-type RET over the M918T mutant”.

CC(C)n1nc(-c2ccc(NC(=O)Nc3cccc(C(F)(C(F)(F)F)C(F)(F)C(F)(F)F)c3)cc2)c2c(N)ncnc21 (stereo not drawn) [APS-8-56-3, 1-(4-(4-Amino-1-isopropyl-1H-pyrazolo[3,4-d]pyrimidin-3-yl)phenyl)-3-(3-(perfluorobutan-2-yl)phenyl)urea 2,2,2-trifluoroacetate] was tested, and the “cellular IC50 against RET” value [3] was “highest IC50 values”.

In the case of CC(C)n1cc(-c2ccc(NC(=O)Nc3cc(C(F)(F)C(F)(F)F)ccc3F)cc2)c2c(N)ncnc21 [APS-7-38, 1-(4-(4-Amino-7-isopropyl-7H-pyrrolo[2,3-d]pyrimidin-5-yl)phenyl)-3-(2-fluoro-5-(perfluoroethyl)phenyl)urea], the “ranking by inhibition … BC model” value [2] is reported as “top ten”.

In the case of COc1ccc(CN2C3CC2CN(c2ccc(-c4cc(OCC(C)(C)O)cn5ncc(C#N)c45)cn2)C3)cn1 [Loxo292, reference compound], the “cellular IC50 wild-type RET versus M918T mutant, in words” value [3] is reported as “slightly lower IC50 values towards wild-type RET over the M918T mutant”.

In the case of CC(C)n1cc(-c2ccc(NC(=O)Nc3ccc(C(F)(C(F)(F)F)C(F)(F)C(F)(F)F)cc3)cc2)c2c(N)ncnc21 (stereo not drawn) [APS-8-82-2, 1-(4-(4-Amino-7-isopropyl-7H-pyrrolo[2,3-d]pyrimidin-5-yl)phenyl)-3-(4-(perfluorobutan-2-yl)phenyl)urea 2,2,2-trifluoroacetate], the “cellular IC50 against RET” value [3] is reported as “highest IC50 values”, the “rescue activity” value [4] is reported as “exceptional in vivo activity” and the “rescue (percent viability of adult flies, adults/pupae×100)” value ([4]; baseline viability 0%, 2,2,2-trifluoroacetate) is reported as 100%.

CC(C)n1nc(-c2ccc(NC(=O)Nc3ccc(C(F)(C(F)(F)F)C(F)(F)F)cc3)cc2)c2c(N)ncnc21 [APS-8-50-3, 1-(4-(4-Amino-1-isopropyl-1H-pyrazolo[3,4-d]pyrimidin-3-yl)phenyl)-3-(4-(perfluoropropan-2-yl)phenyl)urea] was tested, and the “ranking by inhibition … SR model” value [1] was “top ten”.

With CC(C)n1nc(-c2ccc(NC(=O)Nc3ccc(C(F)(C(F)(F)F)C(F)(F)C(F)(F)F)cc3)cc2)c2c(N)ncnc21 (stereo not drawn) [APS-8-6-2, 1-(4-(4-Amino-1-isopropyl-1H-pyrazolo[3,4-d]pyrimidin-3-yl)phenyl)-3-(4-(perfluorobutan-2-yl)phenyl)urea] the “binding to wild-type RET and RET^M918T, in words” value [5] was “more potent than 43 on wild-type and mutant RET”, the “binding to wild-type RET and RET^M918T, in words” value ([5]; listed as 8-6-2) was “highly potent on both wild-type and RET^M918T” and the “binding profile / selectivity across the kinome, in words” value [5] was “generally promiscuous KI”. For the same molecule, the “binding profile / selectivity across the kinome, in words” value ([5]; listed as 8-6-2) was “overall selectivity profile in between 4-9-8 and 8-82-1”, the “cellular IC50 against RET” value [3] was “highest IC50 values” and the “rescue activity” value [4] was “one of the highest rescues in the MTC fly assay; also recorded: exceptional in vivo activity”. For the same molecule, the “rescue (percent viability of adult flies, adults/pupae×100)” value ([4]; baseline viability 0%, listed as 65) was 99%.

In the case of CC(C)n1cc(-c2ccc(NC(=O)Nc3cc(C(F)(C(F)(F)F)C(F)(F)F)ccc3F)cc2)c2c(N)ncnc21 [APS-7-25-2, 1-(4-(4-Amino-7-isopropyl-7H-pyrrolo[2,3-d]pyrimidin-5-yl)phenyl)-3-(2-fluoro-5-(perfluoropropan-2-yl)phenyl)urea], the “ranking by inhibition … BC model” value [2] is reported as “top ten”.

In the case of CC(C)n1nc(-c2ccc(NC(=O)Nc3cccc(C(F)(F)C(F)(F)C(F)(F)F)c3)cc2)c2c(N)ncnc21.O=C(O)C(F)(F)F [APS-7-52-1, 1-(4-(4-Amino-1-isopropyl-1H-pyrazolo[3,4-d]pyrimidin-3-yl)phenyl)-3-(3-(perfluoropropyl)phenyl)urea 2,2,2-trifluoroacetate], the “ranking by inhibition … SR model” value [1] is reported as “top ten”.

With CC(C)n1nc(-c2ccc(NC(=O)Nc3cccc(C(F)(F)C(F)(F)C(F)(F)C(F)(F)F)c3)cc2)c2c(N)ncnc21 [APS-7-46-2, 1-(4-(4-Amino-1-isopropyl-1H-pyrazolo[3,4-d]pyrimidin-3-yl)phenyl)-3-(3-(perfluorobutyl)phenyl)urea] the “rescue (percent viability of adult flies, adults/pupae×100)” value ([4]; baseline viability 0%) was “over 80%”.
